Laboratory results published in paper PMC5861220, “The Cytochrome P450-Mediated Metabolism Alternation of Four Effective Lignans From Schisandra chinensis in Carbon Tetrachloride-Intoxicated Rats and Patients With Advanced Hepatocellular Carcinoma” (Frontiers in Pharmacology, 2018).
Where two headings read alike, the source gives them in different places.

Legend:
[1] = Transport across Caco-2 cell monolayer; format: in vitro ADME; details: human, Caco-2; for efflux ratio at 2 h, 5 μM / efflux ratio at 2 h, 10 μM / efflux ratio at 2 h, 50 μM: ER = Papp (BL → AP)/Papp(AP → BL)
Description: Caco-2 cell (passage 38) was used in the transport experiments. Cells were seeded on polycarbonate filters (12 mm diameter, pore size […]) at 1 × 10^5/cm^2. The cell monolayer was formed 21 days post seeding when the transepithelial electrical resistance (TEER) was above 1,000 Ω• cm^2. Three concentration levels (5, 10, and 50 μM) were set for the four schisandra lignans in the study. After preincubation for 1 h at 37°C, the solution of the four lignans was respectively added to the apical (0.4 mL) or basolateral (0.6 mL) chamber for absorptive (AP → BL) and secretive (BL → AP) permeability test. At the specified timepoints (0.5, 1, 1.5 and 2 h), 50 μL samples (n = 3) were withdrawn from receiver chamber, and meanwhile, 50 μL fresh buffer was added. The four lignans were determined by HPLC-MS method.
The efflux rate (ER) was calculated by the formula ER = Papp (BL → AP)/Papp(AP → BL).

CYP1A2 = molecular target: T1, CYP1A2 (Rattus norvegicus, UniProt P04799); experiment: Lignan metabolism in rat liver microsomes with furafylline; format: in vitro ADME; details: 5 μM, + Furafylline 50 μM (CYP1A2)
T1 sequence (P04799 1-513): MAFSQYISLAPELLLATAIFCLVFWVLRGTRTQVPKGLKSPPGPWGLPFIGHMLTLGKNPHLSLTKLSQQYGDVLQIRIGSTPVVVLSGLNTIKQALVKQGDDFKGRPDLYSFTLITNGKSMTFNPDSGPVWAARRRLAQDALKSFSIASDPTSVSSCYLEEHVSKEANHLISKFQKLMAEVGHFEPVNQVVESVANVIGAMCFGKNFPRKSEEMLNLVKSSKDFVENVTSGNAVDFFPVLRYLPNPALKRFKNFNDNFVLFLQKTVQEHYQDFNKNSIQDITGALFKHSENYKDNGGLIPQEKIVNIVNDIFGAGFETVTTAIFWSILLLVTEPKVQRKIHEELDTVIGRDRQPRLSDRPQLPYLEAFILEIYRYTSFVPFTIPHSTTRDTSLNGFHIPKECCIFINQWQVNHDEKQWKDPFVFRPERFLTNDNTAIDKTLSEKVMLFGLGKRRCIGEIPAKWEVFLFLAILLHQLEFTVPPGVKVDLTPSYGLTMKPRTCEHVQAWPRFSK
Description: (§1) The CYP450s involved in the metabolism of schisandrin, schisantherin A, deoxyshisandrin and γ-schisandrin in rat or human liver microsomes were confirmed by comparison of the metabolism ratio before and after the addition of selective inhibitors to CYP450 isozymes. […] The supernate was injected to HPLC-MS for analysis of the four lignans.

CYP3A4/5 = experiment: Lignan metabolism in human liver microsomes with ketoconazole; format: in vitro ADME; details: 5 μM
Description: as §1

[2] = Identification of CYP450 isozymes in lignan metabolism, rat liver microsomes (no inhibitor / overall); format: in vitro ADME; details: for Metabolism rate: rat liver microsomes 1 mg/mL, 5 μM, Control (no inhibitor); for CYP450 isozymes participated in the metabolism (≥20% inhibition): rat liver microsomes incubation with selective inhibitors
Description: as §1

[3] = Identification of CYP450 isozymes in lignan metabolism, human liver microsomes (no inhibitor); format: in vitro ADME; details: human liver microsomes 0.5 mg/mL, 5 μM, Control (no inhibitor)
Description: as §1

[4] = Pharmacokinetics of four lignans in rats after oral SC alcoholic extract; format: in vivo, rat; details: for AUC(0-t) / Cmax / half-life / CL/F / MRT last / Tmax: Sprague-Dawley, rat, plasma, po, 1.5 g/kg/day, oral SC alcoholic extract 1.5 g/kg/day for 4 days, n = 5; for CL/F: read-out: CLz/F (converted); for MRT last: read-out: MRT(0−t); for Tmax: read-out: Tmax
Description: The pharmacokinetic profiles of four lignans were studied in ALI rat after multiple oral administrations of SC alcoholic extract at dose of 1.5 g/kg/day. After the ALI rat was established, SC alcoholic extract suspended in 0.5% sodium carboxymethyl cellulose was given to ALI rats and the control via oral gavage once a day for 4 consecutive days. Before the last dosing, rats were fasted for 12 h while water was taken freely. Blood samples were collected at 0, 0.25, 0.5, 1, 2, 3, 4, 6, 8, 12, 24, 36, and 48 h after the last dosing. A cannula was surgically placed into the jugular vein for collection of blood samples (about 0.1 mL) and blood loss compensation using sterile isotonic saline in the pharmacokinetic study. Plasma was separated by centrifugation and stored at −20°C until analysis. Plasma concentrations of the four lignans were quantified using HPLC-MS analysis developed according to the reported method (Wang et al., [2008]).
Data fitting and pharmacokinetic parameter calculations were carried out using the Winnolin software. Non-compartmental analysis was used to calculate the pharmacokinetic parameters. Parameters, such as AUC and MRT, were calculated using statistical moment method.

CYP3A = experiment: Lignan metabolism in rat liver microsomes with ketoconazole; format: in vitro ADME; details: 5 μM, + Ketoconazole 100 μM (CYP3A)
Description: as §1

[5] = tested on: rat intestine (jejunum segment); experiment: In situ intestinal perfusion of four lignans; format: in vivo; details: for Perfusate (Percent of the initial dose) / Plasma (Percent of the initial dose) / Intestine (Percent of the initial dose) / Pblood / Plumen: 50 μM, n = 3; for Perfusate (Percent of the initial dose): intestinal perfusion 60 min; for Plasma (Percent of the initial dose) / Intestine (Percent of the initial dose) / Rise of cumulative plasma amount: intestinal perfusion; for Plasma (Percent of the initial dose): mesenteric vein blood; for Increase of remaining amount in perfusate: intestinal autoperfusion (60 min), CCl4-treated rats vs control; for Rise of cumulative plasma amount: CCl4-intoxicated rats vs control
Description: The surgical procedures of intestinal perfusion were conducted according to those published reports (Savina et al., [1981]). Hank's balanced salt solution (HBSS, pH 7.4) with four schisandra lignans (50 μM) at 37°C was infused into the jejunum segment at rate of 0.3 mL/min. Phenol Red (50 μM) was added to serve as a nonabsorbable marker for measuring water flux. Blood samples from mesenteric vein and perfusate were collected at 5-min interval. The plasma separated by centrifugation and perfusate was stored at −20°C until HPLC-MS analysis.
The permeability of four lignans across the rat intestine was calculated based on the disappearance of parent drug from the lumen (Plumen) as well as the appearance of the drug in blood (Pblood) using the following equations (Singhal et al., [1998]):
(1) Plumen = −Q/2πrlLnCout/Cin
(1) Pblood = ΔMB/Δt/2πrl{C}
where r is the radius of the perfused intestinal lumen; l is the length of the segment; Q is the flow rate of perfusate; Cin is the concentration of drug at the start of perfusion; and Cout is the steady-state concentration of drug exiting the lumen. ΔMB/Δt is the rate of drug appearance in mesenteric blood; and {C} is the logarithmic mean concentration of drug in the lumen.

Row | Compound | Papp A→B at 2 h, 5 μM [1] [×10⁻⁶ cm/s] | Papp B→A at 2 h, 5 μM [1] [×10⁻⁶ cm/s] | efflux ratio at 2 h, 5 μM [1] | Papp A→B at 2 h, 10 μM [1] [×10⁻⁶ cm/s] | Papp B→A at 2 h, 10 μM [1] [×10⁻⁶ cm/s] | efflux ratio at 2 h, 10 μM [1] | Papp A→B at 2 h, 50 μM [1] [×10⁻⁶ cm/s] | Papp B→A at 2 h, 50 μM [1] [×10⁻⁶ cm/s] | efflux ratio at 2 h, 50 μM [1] | Metabolism rate (CYP1A2) [nmol/min/mg] | Metabolism rate (CYP3A4/5) [nmol/min/mg] | Metabolism rate [2] [nmol/min/mg] | CYP450 isozymes participated in the metabolism (≥20% inhibition) [2] | Metabolism rate [3] [nmol/min/mg] | AUC(0-t) ([4]; CCl4-intoxicated rats) [ng·h/mL] | Cmax ([4]; CCl4-intoxicated rats) [ng/mL] | half-life ([4]; CCl4-intoxicated rats) [h] | CL/F ([4]; CCl4-intoxicated rats) [mL/min/kg] | MRT last ([4]; CCl4-intoxicated rats) [h] | Tmax ([4]; CCl4-intoxicated rats) [h] | also measured
1 | COc1cc2c(c(OC)c1OC)-c1c(cc(OC)c(OC)c1OC)C[C@H](C)[C@@H](C)C2 [Deoxyshisandrin, deoxyshisandrin] | 1.17 ± 0.13 | 1.67 ± 0.14 | 1.42 | 1.16 ± 0.04 | 1.52 ± 0.16 | 1.31 | 1.24 ± 0.17 | 1.71 ± 0.51 | 1.38 | 85.2 ± 7.6 | 38.2 ± 4.3 | 87.5 ± 7.8 | CYP2C11, CYP2D2, CYP2E1, and CYP3A | 162.5 ± 15.6 | 16400 ± 5020 | 775 ± 239 | 13.1 ± 1.78 | 35.5 | 16.4 ± 1.02 | 5.8 ± 2.86 | Reduction of systemic clearance (CLz/F) ([4]; CCl4 intoxicated rats vs control rats): ~56%; AUC(0-t) ([4]; Control (normal) rats): 7880 ± 2810 ng·h/mL; Cmax ([4]; Control (normal) rats): 564 ± 318 ng/mL; half-life ([4]; Control (normal) rats): 11.5 ± 2.08 h; CL/F ([4]; Control (normal) rats): 80 mL/min/kg; MRT last ([4]; Control (normal) rats): 11.7 ± 0.97 h; Tmax ([4]; Control (normal) rats): 5 ± 2.24 h; Metabolism rate (CYP3A): 20.0 ± 1.6 nmol/min/mg; Perfusate (Percent of the initial dose) ([5]; CCl4-intoxicated rats): 91.77 ± 1.59% of the initial dose; Plasma (Percent of the initial dose) ([5]; CCl4-intoxicated rats): 0.83 ± 0.06% of the initial dose; Intestine (Percent of the initial dose) ([5]; CCl4-intoxicated rats): 1.79 ± 0.41% of the initial dose; Pblood ([5]; CCl4-intoxicated rats): 0.063 ± 0.018 × 10^−4 cm/s; Plumen ([5]; CCl4-intoxicated rats): 2.270 ± 0.363 × 10^−4 cm/s; Perfusate (Percent of the initial dose) ([5]; Control rats): 81.69 ± 1.77% of the initial dose; Plasma (Percent of the initial dose) ([5]; Control rats): 0.51 ± 0.03% of the initial dose; Intestine (Percent of the initial dose) ([5]; Control rats): 1.69 ± 0.30% of the initial dose; Pblood ([5]; Control rats): 0.053 ± 0.009 × 10^−4 cm/s; Plumen ([5]; Control rats): 2.337 ± 0.211 × 10^−4 cm/s; Increase of remaining amount in perfusate [5]: about 10%; Rise of cumulative plasma amount [5]: ~63%
2 | COc1cc2c(c(OC)c1OC)-c1c(cc(OC)c(OC)c1OC)C[C@](C)(O)[C@@H](C)C2 [Schisandrin, schisandrin] | 2.15 ± 0.56 | 3.31 ± 0.59 | 1.54 | 1.86 ± 0.17 | 2.03 ± 0.11 | 1.09 | 1.93 ± 0.2 | 2.12 ± 0.17 | 1.1 | 215.1 ± 26.5 | 176.7 ± 27.6 | 233.3 ± 35.6 | CYP2C6/11, CYP2E1, and CYP3A | 263.4 ± 22.5 | 74700 ± 26300 | 3980 ± 1530 | 7.74 ± 1.21 | 6.61 | 12.8 ± 0.25 | 6.2 ± 2.05 | AUC(0-t) ([4]; Control (normal) rats): 19800 ± 7490 ng·h/mL; Cmax ([4]; Control (normal) rats): 1370 ± 617 ng/mL; half-life ([4]; Control (normal) rats): 10.1 ± 4.12 h; CL/F ([4]; Control (normal) rats): 24.3 mL/min/kg; MRT last ([4]; Control (normal) rats): 11.1 ± 0.97 h; Tmax ([4]; Control (normal) rats): 6 h; Metabolism rate (CYP3A): 172.9 ± 8.6 nmol/min/mg; Perfusate (Percent of the initial dose) ([5]; CCl4-intoxicated rats): 93.40 ± 1.05% of the initial dose; Plasma (Percent of the initial dose) ([5]; CCl4-intoxicated rats): 0.84 ± 0.06% of the initial dose; Intestine (Percent of the initial dose) ([5]; CCl4-intoxicated rats): 1.98 ± 0.13% of the initial dose; Pblood ([5]; CCl4-intoxicated rats): 0.063 ± 0.008 × 10^−4 cm/s; Plumen ([5]; CCl4-intoxicated rats): 2.420 ± 0.788 × 10^−4 cm/s; Perfusate (Percent of the initial dose) ([5]; Control rats): 86.16 ± 1.39% of the initial dose; Plasma (Percent of the initial dose) ([5]; Control rats): 0.44 ± 0.06% of the initial dose; Intestine (Percent of the initial dose) ([5]; Control rats): 2.22 ± 0.96% of the initial dose; Pblood ([5]; Control rats): 0.046 ± 0.008 × 10^−4 cm/s; Plumen ([5]; Control rats): 2.490 ± 0.141 × 10^−4 cm/s; Increase of remaining amount in perfusate [5]: about 10%; Rise of cumulative plasma amount [5]: about 91%
